Assay results as given in patent US9453023B2, “Substituted phenyl cycloalkyl pyrrolidine (piperidine) spirolactams and amides, preparation and therapeutic use thereof” (SANOFI, priority 2010, dated 2016).

Target: rhesus (Macacca Mulatta) H3 receptor (Macaca mulatta, UniProt Q865E1)
Test: Rhesus H3 radioligand binding assay ([3H]-Methylhistamine, WGA SPA)
Design: species or system rhesus monkey (Macacca Mulatta)
Settings: displacement of [3H]-Methylhistamine (2 nM) from rhesus H3 receptor membranes; Cheng-Prusoff
Method: (Genbank #AY231164). Stably transfected cultures were amplified in tissue culture flasks by standard tissue culture methods and induced to express rhesus H3 by exposure to 500 ng/ml tetracycline (Cellgro) for 24 hours. After induction, cells were dissociated from flasks utilizing Cell Stripper (Cellgro). Cells were centrifuged (1K×g, 5 min) and pellet frozen in an ethanol-dry ice bath to disrupt cell membranes. Frozen cell pellet was re-suspended in 5 mM HEPES (pH 7.4, Invitrogen) at 10 ml/1000 cm2 of harvested cells. The cell suspension was drawn through an 18 gauge needle (2-3×) followed by a 23 gauge needle (2-3×) to further disrupt cell membranes. The cell suspension was centrifuged (40K×g, 30 min). Cell membrane pellet was re-suspended in 5 mM HEPES (pH 7.4, Invitrogen) at a final protein concentration of 10 mg/ml. Rhesus H3 membranes were stored under liquid nitrogen prior to use in [3H]-Methylhistamine and GTPγS radioligand binding assays.
Rhesus H3 radioligand binding assay was performed using rhesus H3 receptor membranes (prepared as described above), [3H]-Methylhistamine (Perkin Elmer) and WGA SPA beads (wheat germ agglutinin scintillation proximity assay) beads (Amersham). The assay was performed in 96-well Opti-Plates (Packard). Each reaction contained 50 μl rhesus H3 membranes (20-30 μg total protein), 50 μl WGA SPA beads (0.1 μg) and 50 μl of 83 Ci/mmol [^3H]-Methylhistamine (final concentration 2 nM) and 50 μl of tested compound. The compounds of this invention and/or vehicle were diluted with binding buffer from 10 mM DMSO stocks. Assay plates were sealed with TopSeal (Perkin Elmer) and mixed on shaker (25° C., 1 hour). Assay plates were read on TopCount scintillation counter (Packard). Results were analyzed by Hill transformation and Ki values were determined by Cheng-Prusoff equation.

Chain of rhesus (Macacca Mulatta) H3 receptor (Q865E1 1-445): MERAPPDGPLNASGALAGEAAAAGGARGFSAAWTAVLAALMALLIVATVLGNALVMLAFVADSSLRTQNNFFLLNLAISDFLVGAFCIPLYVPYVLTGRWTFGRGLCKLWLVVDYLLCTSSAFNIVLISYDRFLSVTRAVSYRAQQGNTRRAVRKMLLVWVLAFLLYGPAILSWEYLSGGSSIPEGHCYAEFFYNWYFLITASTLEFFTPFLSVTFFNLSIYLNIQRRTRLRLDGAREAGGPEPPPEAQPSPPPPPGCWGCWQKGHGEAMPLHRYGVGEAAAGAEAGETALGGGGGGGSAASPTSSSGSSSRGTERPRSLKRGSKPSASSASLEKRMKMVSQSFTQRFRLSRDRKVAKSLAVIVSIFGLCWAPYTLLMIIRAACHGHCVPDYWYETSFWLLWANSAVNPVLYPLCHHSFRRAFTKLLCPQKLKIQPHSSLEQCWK

Ki [nM] | Compound
26.8 | CC1CCCN1C1CC[C@H](c2ccc(N3CCC4(CCN(C(=O)OC(C)(C)C)CC4)C3=O)cc2)C1 (stereo partly drawn) [Example 6, 2-{4-[3-(2-Methyl-pyrrolidin-1-yl)-cyclopentyl]-phenyl}-1-oxo-2,8-diaza-spiro[4.5]decane-8-carboxylic acid tert-butyl ester]
65.4 | CC1CCCN1C1CC[C@H](c2ccc(NC(=O)OCc3ccccc3)cc2)C1 (stereo partly drawn) [Intermediate (10), {4-[(S)-3-(2-Methyl-pyrrolidin-1-yl)-cyclopentyl]-phenyl}-carbamic acid benzyl ester]
98.7 | Cc1ccc(C(=O)Nc2ccc([C@H]3CCC(N4CCC[C@@H]4C)C3)cc2)cc1 (stereo partly drawn) [Example 34, 4-Methyl-N-{4-[(S)-3-((S)-2-methyl-pyrrolidin-1-yl)-cyclopentyl]-phenyl}-benzamide]
